PMC6262321, “New Pim-1 Kinase Inhibitor From the Co-culture of Two Sponge-Associated Actinomycetes” (Frontiers in Chemistry, 2018)
Like-named read-outs stand apart in the source and are kept apart here.

Assays:
Pim-1 = test system: Pim-1; parameters: method as in Nakano et al., 2012; settings: ligand of PDB code 3umw; ref Nakano et al., 2012; read-out: Pim-1 IC50 of co-crystalized ligand; cited from earlier work
[1] = test system: lung adenocarcinoma H1650; assay: MTT antiproliferative assay, H1650; type: cell-based; settings: mean of 3 independent experiments, read-out: Antiproliferative activity IC50 ± S.D., H1650
Method: Cell proliferation was evaluated in cell lines by the MTT assay in triplicates. 10^4 cells were plated in a 96-well microtiter plate in a final volume of 100 μl of culture medium. Cells were treated for 24 h with test compound at 37 °C with 5% CO2. After treatment, the cells were immediately incubated with 10 μl MTT (5.0 mg/mL) for 4 h at 37°C. The cells were then lysed in 100 μl of lysis buffer (isopropanol, conc. HCl and Triton X-100) for 10 min at room temperature and 300 rpm/min shaking. The enzymatic reduction of MTT to formazan crystals that dissolved in DMSO was quantified by photometry at 570 nm. […] 5-Flurouracil was used as a positive control.

[2] = test system: human promyelocytic leukemia HL-60; assay: MTT antiproliferative assay, HL-60; type: cell-based; settings: mean of 3 independent experiments, read-out: Antiproliferative activity IC50 ± S.D., HL-60 (head prints HL-6)
[3] = test system: human colon adenocarcinoma HT-29; assay: MTT antiproliferative assay, HT-29; type: cell-based; settings: mean of 3 independent experiments, read-out: Antiproliferative activity IC50 ± S.D., HT-29
Pim-1 kinase = target: T1, Pim-1 kinase (Homo sapiens, UniProt P11309); assay: Pim-1 kinase assay (HTScan Kinase Assay); type: biochemical
T1 construct: purchased Cell Signaling Technology
T1 sequence (P11309 whole entry): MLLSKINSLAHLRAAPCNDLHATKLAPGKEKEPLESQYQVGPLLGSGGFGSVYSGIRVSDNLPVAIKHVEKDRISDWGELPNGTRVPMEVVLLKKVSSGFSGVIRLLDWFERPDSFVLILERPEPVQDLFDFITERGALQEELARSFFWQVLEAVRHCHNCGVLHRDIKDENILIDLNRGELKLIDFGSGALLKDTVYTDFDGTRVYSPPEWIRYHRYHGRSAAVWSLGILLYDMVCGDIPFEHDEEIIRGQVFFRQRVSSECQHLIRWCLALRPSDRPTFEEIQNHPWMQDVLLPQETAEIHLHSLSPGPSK

[4] = Homo sapiens, NCI-H1650, 24 h treatment
[5] = Homo sapiens, HL-60, 24 h treatment
[6] = Homo sapiens, HT-29, 24 h treatment
[7] = 50 ng Pim-1, 200 μM ATP, 1.5 μM biotinylated BAD Ser112 peptide, 30 min, mean of 3 independent experiments, read-out: In-vitro Pim-1 kinase inhibitory activity IC50 ± S.D.

| IC50 [1, 4] [µM] | IC50 [2, 5] [µM] | IC50 [3, 6] [µM] | IC50 (Pim-1 kinase; [7]) [µM] | IC50 ([1]; 24 h treatment) [µM] | IC50 ([2]; 24 h treatment) [µM] | IC50 ([3]; 24 h treatment) [µM] | SMILES | IC50 (Pim-1) [µM] | IC50 (Pim-1 kinase) [µM] |
| --- | --- | --- | --- | --- | --- | --- | --- | --- | --- |
| > 100 | > 100 | > 100 | > 20 |  |  |  | CC(=O)C[C@@]1(O)C(=O)Nc2cc(Br)ccc21 [Compound 2, (S) enantiomer of (R)-6-Bromo-3-hydroxy-3-(2 oxopropyl)indolin-2-one] |  |  |
| > 100 | > 100 | > 100 | > 20 |  |  |  | OCCc1c[nH]c2ccccc12 [Compound 7, tryptophol] |  |  |
| > 100 | > 100 | > 100 | > 20 |  |  |  | O=C(O)c1cc(O)c2ccccc2c1O [Compound 11, 1,4 dihydroxy-2-naphthoic acid] |  |  |
| > 100 | > 100 | > 100 | > 20 |  |  |  | O=Cc1c[nH]c2ccccc12 [Compound 6, indole-3-carbaldehyde] |  |  |
| > 100 | > 100 | > 100 | > 20 |  |  |  | O=C(O)c1ccc2ccccc2c1O [Compound 10, 1-hydroxy-2-naphthoic acid] |  |  |
| > 100 | > 100 | > 100 | > 20 |  |  |  | O=C(O)C(=O)Cc1c[nH]c2ccccc12 [Compound 8, indole-3-pyruvic acid] |  |  |
| > 100 | > 100 | > 100 | > 20 |  |  |  | CC(c1c[nH]c2ccccc12)c1c[nH]c2ccccc12 [Compound 5, vibrindole] |  |  |
| > 100 | > 100 | > 100 | > 20 |  |  |  | Cc1c[nH]c2ccccc12 [Compound 9, skatole] |  |  |

Continued, compound first:

| SMILES | IC50 [1, 4] [µM] | IC50 [2, 5] [µM] | IC50 [3, 6] [µM] | IC50 (Pim-1 kinase; [7]) [µM] | IC50 ([1]; 24 h treatment) [µM] | IC50 ([2]; 24 h treatment) [µM] | IC50 ([3]; 24 h treatment) [µM] | IC50 (Pim-1) [µM] | IC50 (Pim-1 kinase) [µM] |
| --- | --- | --- | --- | --- | --- | --- | --- | --- | --- |
| COc1ccc2c(c1CN1CCNCC1)OC(=Cc1n[nH]c3ccccc13)C2=O [co-crystalized ligand] |  |  |  |  |  |  |  | 0.003 |  |
| C[C@@H]1C[C@H]2CC[C@H](O2)[C@H](C)C(=O)O[C@@H](C)C[C@@H]2CC[C@@H](O2)[C@@H](C)C(=O)O[C@H](C)C[C@H]2CC[C@H](O2)[C@H](C)C(=O)O[C@@H](C)C[C@@H]2CC[C@@H](O2)[C@@H](C)C(=O)O1 [Compound 4, Nonactin] | > 100 | > 100 | > 100 |  |  |  |  |  | > 20 |
| O=C1Nc2cc(Br)ccc2[C@@]1(O)c1c[nH]c2ccccc12 [Compound 3, (S) 6-bromo-3-hydroxy-3-(1H-indol-3-yl) indolin-2-one] | > 100 |  |  |  |  |  |  |  |  |
| COc1ccc(/C=C/C(=N)/C=C2/C(=O)Nc3cc(Br)ccc32)cc1 [Compound 1, (E)-6-bromo-3-((E)-2-imino-4-(4-methoxyphenyl)but-3-en-1-ylidene)indolin-2-one] | > 100 |  |  |  |  |  |  |  |  |
| O=c1[nH]cc(F)c(=O)[nH]1 [5-Flurouracil, reference compound] |  |  |  |  | 0.5 ± 0.67 | 0.2 ± 0.43 | 0.3 ± 0.35 |  |  |
